# Measured values taken from ChEMBL document CHEMBL1201862, “PubChem BioAssay data set” (2004).
# The source made the active and inactive calls.
# Columns and labels:
# [1] = inhibitors of firefly luciferase expression or activity, dose response, H4 neuroglioma cells, luminescence (AID 1990); format: functional, cell-based
# [2] = Luminescence Cell-Based Dose Response HTS to Identify Inhibitors of 5'UTR Stem-Loop Driven Prion Protein mRNA Translation in H4 Neuroglioblastoma Cells. [Related pubchem assays: 1827 (Project Summary), 1813 (Primary HTS)]; format: functional
# [3] = inhibitors of SNCA 5'UTR-driven reporter translation, confirmation, H4 neuroglioma cells, luminescence (AID 1988); format: functional, cell-based
# [4] = target: T1, Corticotropin-releasing factor receptor 2/Corticotropin-releasing factor-binding protein (Homo sapiens, UniProt P24387+Q13324); test: Dose Response confirmation of uHTS hits for small molecule antagonists of the CRF-binding protein and CRF-R2 receptor complex.; format: functional; settings: read-out: IC50_Mean
# T1 sequence (Q13324 whole entry): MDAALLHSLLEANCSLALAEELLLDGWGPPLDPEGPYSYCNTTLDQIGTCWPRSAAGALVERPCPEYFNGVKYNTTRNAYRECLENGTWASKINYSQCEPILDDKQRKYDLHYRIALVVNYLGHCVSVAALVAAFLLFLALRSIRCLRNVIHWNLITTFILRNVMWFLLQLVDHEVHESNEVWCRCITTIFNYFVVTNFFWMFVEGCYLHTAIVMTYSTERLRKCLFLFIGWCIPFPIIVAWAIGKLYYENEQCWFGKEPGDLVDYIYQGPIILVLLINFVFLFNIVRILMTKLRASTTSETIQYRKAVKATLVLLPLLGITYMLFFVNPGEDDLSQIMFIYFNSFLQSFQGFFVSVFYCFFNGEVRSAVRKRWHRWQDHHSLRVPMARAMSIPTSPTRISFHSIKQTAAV
# T1 sequence (P24387 whole entry): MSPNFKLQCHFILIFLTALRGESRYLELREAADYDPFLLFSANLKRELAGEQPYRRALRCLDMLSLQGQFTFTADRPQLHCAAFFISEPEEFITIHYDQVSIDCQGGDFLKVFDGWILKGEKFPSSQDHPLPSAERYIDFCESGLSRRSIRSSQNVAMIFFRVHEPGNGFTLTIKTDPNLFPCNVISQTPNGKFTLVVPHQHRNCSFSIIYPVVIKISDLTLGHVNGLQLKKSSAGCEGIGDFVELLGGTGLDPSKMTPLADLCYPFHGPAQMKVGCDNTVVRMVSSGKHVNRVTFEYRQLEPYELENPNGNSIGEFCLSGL
# [5] = target: T1, Corticotropin-releasing factor receptor 2/Corticotropin-releasing factor-binding protein; test: activators of CRF receptor 2 with binding protein – uHTS hits, confirmation (AID 602473); format: functional; settings: read-out: EC50_Mean
# [6] = growth suppression of PTEN-null colon cells, dose response, cell-based, HCT116 PTEN knockout (AID 1047); format: functional;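 note: HCT116 colon tumor cells with PTEN knocked out; cells exposed to compound for 60 hours before readout; potency for loss of cell viability measured by luminescence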
# [7] = growth suppression of beta-catenin-knockout colon cells, dose response, cell-based, HCT116, human colon tumor (AID 1045); format: functional;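 note: HCT116 colon tumor cells with beta catenin knocked out; cells exposed to compound for 60 hours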
# INS1 = test: beta cell apoptosis inhibitors, cytokine rescue, dose response, luminescence, retest (AID 449756); format: functional, cell-based; settings: Rattus norvegicus;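 note: cell death triggered by IL-1 beta plus TNF-alpha plus IFN-gamma mixture; protective hits raise ATP signal compared with cytokine alone wells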
# Vero = test: cells; format: functional; settings: Chlorocebus sabaeus
# [8] = target: T2, Polyadenylate-binding protein 1 (Homo sapiens, UniProt P11940); test: PABP1 MLLE–PAM2 interaction inhibitors, dose response, miRNA deadenylation inhibitor project, biochemical, fluorescence polarization, Cy5-PAM2 peptide, secondary (AID 602260); format: functional; settings: read-out: IC50_Mean
# T2 sequence (P11940 whole entry): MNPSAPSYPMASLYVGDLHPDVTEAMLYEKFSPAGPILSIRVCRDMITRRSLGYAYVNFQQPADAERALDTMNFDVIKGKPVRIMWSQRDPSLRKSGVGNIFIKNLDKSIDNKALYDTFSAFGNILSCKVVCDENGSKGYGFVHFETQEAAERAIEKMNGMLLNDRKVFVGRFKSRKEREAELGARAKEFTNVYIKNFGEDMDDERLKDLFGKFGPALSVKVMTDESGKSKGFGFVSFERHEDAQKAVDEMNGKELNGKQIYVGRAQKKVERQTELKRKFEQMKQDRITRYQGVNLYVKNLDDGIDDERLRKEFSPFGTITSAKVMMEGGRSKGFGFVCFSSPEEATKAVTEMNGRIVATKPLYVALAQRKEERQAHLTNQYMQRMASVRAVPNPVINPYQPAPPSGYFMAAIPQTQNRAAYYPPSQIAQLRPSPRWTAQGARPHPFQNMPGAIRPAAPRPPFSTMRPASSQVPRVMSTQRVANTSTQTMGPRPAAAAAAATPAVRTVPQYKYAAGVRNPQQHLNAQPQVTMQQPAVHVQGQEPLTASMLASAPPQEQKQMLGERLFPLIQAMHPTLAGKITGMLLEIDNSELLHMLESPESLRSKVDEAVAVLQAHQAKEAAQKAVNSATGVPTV
# [9] = target: T2, Polyadenylate-binding protein 1; test: PABP1 MLLE–PAM2 binding inhibitor potency, dose response, biochemical, fluorescence polarization, FITC-PAM2 peptide (AID 602259); format: functional; settings: read-out: IC50_Mean
# Cytochrome P450 2C9 = Cytochrome P450 2C9 (Homo sapiens, UniProt P11712)
# Sequence of Cytochrome P450 2C9 (P11712 whole entry): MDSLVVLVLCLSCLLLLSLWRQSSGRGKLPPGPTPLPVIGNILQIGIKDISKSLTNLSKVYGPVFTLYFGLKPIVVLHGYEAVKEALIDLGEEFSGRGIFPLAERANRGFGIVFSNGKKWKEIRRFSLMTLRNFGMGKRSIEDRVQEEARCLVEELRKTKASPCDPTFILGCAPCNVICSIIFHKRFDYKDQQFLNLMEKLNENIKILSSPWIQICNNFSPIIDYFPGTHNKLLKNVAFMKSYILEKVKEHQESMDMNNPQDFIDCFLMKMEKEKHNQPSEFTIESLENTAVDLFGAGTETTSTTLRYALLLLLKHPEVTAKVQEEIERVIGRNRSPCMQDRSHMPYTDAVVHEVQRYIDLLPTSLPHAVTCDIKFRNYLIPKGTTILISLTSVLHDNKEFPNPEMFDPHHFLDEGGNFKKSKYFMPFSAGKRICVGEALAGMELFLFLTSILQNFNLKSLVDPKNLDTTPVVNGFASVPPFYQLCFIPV
# [10] = test system: Streptococcus sp. 'group A'; test: growth inhibition of control SK(-) GAS strain, dose response, counter-screen for streptokinase expression inhibitor project, luminescence, kanamycin, BacTiterGlo, confirmation (AID 1900); format: functional, organism-based
# Streptokinase A = target: T3, Streptokinase A (Streptococcus pyogenes serotype M1, UniProt P10520); test: S. pyogenes streptokinase expression inhibitors, potency, dose response, plasminogen activation absorbance, OD405 (AID 1914); format: functional, Streptococcus pyogenes M1 GAS;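 note: secreted streptokinase activity via plasminogen activation per viability signal from cell pellet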
# T3 sequence (P10520 whole entry): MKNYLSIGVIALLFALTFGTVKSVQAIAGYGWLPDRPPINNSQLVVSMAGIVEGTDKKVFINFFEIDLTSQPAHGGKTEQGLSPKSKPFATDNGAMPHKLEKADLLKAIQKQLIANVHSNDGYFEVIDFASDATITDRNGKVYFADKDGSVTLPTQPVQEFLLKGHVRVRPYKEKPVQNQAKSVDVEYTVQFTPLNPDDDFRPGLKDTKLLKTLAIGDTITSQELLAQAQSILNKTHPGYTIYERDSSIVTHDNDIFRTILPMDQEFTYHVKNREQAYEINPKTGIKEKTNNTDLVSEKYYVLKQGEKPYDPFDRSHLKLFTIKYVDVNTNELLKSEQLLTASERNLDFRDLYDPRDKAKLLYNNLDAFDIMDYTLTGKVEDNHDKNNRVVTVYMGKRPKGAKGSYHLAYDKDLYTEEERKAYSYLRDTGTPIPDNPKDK
# Streptococcus = test: Group A Streptococcus viability loss, dose response, counter-screen for streptokinase expression inhibitor project, luminescence, BacTiterGlo (AID 1915); format: functional, organism-based;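 note: potency for reduction of bacterial viability or growth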
# [11] = Luminescence Cell-Based Dose Retest to Confirm Inhibitors of Cancer Stem Cells. [Related pubchem assays (depositor defined):AID2717, AID2721]; format: functional; settings: Homo sapiens
# Cytochrome P450 1A2 = target: T4, Cytochrome P450 1A2 (Homo sapiens, UniProt P05177);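 note: PubChem cytochrome P450 panel assay, CYP1A2 panel member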
# T4 sequence (P05177 whole entry): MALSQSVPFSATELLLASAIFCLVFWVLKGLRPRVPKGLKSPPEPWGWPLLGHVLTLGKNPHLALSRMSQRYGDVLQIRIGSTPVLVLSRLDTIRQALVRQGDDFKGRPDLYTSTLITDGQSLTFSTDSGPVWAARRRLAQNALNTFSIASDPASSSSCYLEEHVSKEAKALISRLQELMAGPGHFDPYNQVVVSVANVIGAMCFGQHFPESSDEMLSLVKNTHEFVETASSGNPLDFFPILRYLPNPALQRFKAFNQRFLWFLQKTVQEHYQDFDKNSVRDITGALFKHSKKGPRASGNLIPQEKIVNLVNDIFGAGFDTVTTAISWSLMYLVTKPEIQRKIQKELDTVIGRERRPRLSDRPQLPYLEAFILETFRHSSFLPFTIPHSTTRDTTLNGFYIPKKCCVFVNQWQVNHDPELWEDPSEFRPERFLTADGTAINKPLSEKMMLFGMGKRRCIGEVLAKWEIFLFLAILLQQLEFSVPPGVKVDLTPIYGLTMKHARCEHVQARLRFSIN
compound,measurement,setting,value
COCCn1c(SCC(=O)Nc2cccc(C(=O)OC)c2)nc2ccccc2c1=O,EC50,[1],36.7 µM (active)
same,EC50,[2],> 120 µM (not active)
same,EC50,[3],15.2 µM (active)
same,IC50,[4],> 47.1 µM (inactive)
same,EC50,[5],> 53 µM (inactive)
O=C(c1cccc(Cl)c1)c1nn(-c2ccccc2)c(=O)cc1C(F)(F)F,EC50,[6],10.6 µM (active)
same,EC50,[7],12.3 µM (active)
same,AC50,INS1,23.8 µM (active)
Cn1ncc2c(Nc3ccc(-c4ccccc4)cc3)ncnc21,CC50,Vero,> 25 µM (active)
Cc1ccccc1C(=O)Nc1ccc2c(C#N)c3nc4ccccc4nc3n2c1,EC50,[6],6.62 µM (active)
same,EC50,[7],5.34 µM (active)
O=[N+]([O-])c1cccc(C(=S)N2CCN(c3ccccc3F)CC2)c1,IC50,[8],> 66 µM (inactive)
same,IC50,[9],> 66 µM (inactive)
CC(C)(C)n1nc2c(c1NC(=O)c1cc3ccccc3o1)CSC2,IC50,[8],> 66 µM (inactive)
same,IC50,[9],> 66 µM (inactive)
COc1ccccc1COC(=O)Nc1c(C)nn(C)c1Cl,AC50,Cytochrome P450 2C9,inconclusive
CCc1c(C)sc(NC(=O)c2ccco2)c1C(=O)N1CCOCC1,IC50,[8],> 66 µM (inactive)
same,IC50,[9],> 66 µM (inactive)
O=C(C[n+]1nc(CNc2ccc(Cl)cc2)n2c1CCCCC2)c1ccc(Br)cc1,EC50,[10],5.64 µM (active)
same,EC50,Streptokinase A,12.5 µM (active)
same,EC50,Streptococcus,84.2 µM (active)
same,IC50,[4],> 47.1 µM (inactive)
same,EC50,[5],> 53 µM (inactive)
O=C1c2cccc3c(Cl)ccc(c23)C(=O)N1O,AC50,Cytochrome P450 2C9,inconclusive
CCN(CC)c1ccc(C(=O)OCc2cc(=O)oc3cc(O)ccc23)cc1,EC50,[1],9 µM (active)
same,EC50,[10],16.1 µM (active)
same,EC50,[2],> 120 µM (not active)
same,EC50,[3],10.5 µM (active)
same,EC50,Streptokinase A,128 µM (active)
same,EC50,[6],7.3 µM (active)
same,EC50,[7],5.62 µM (active)
same,EC50,Streptococcus,> 150 µM (not active)
same,AC50,[11],4.72 µM (active)
same,AC50,Cytochrome P450 1A2,2.24 µM (inconclusive)
same,AC50,Cytochrome P450 2C9,inconclusive
COc1ccc(O)c(C(=O)CC(=O)c2ccccc2C)c1,EC50,[10],6.85 µM (active)
same,EC50,Streptokinase A,> 150 µM (not active)
same,EC50,Streptococcus,49.1 µM (active)
same,CC50,Vero,20.4 µM (active)
Cn1c(Cc2cccc3ccccc23)nnc1SCC(=O)N1CCN(c2ccccc2)CC1,AC50,Cytochrome P450 2C9,inconclusive
